A short description of data set [1]: Solubility of the compound in water. Type of data set: physicochemical. The following applies: buffer.
A further data set relates to HCT-8. Description: Cytotoxicity against human HCT8 cells assessed as growth inhibition after 48 hrs by MTT assay. Type of data set: functional, cell-based. The settings on record: HCT-8, 48 h. (Formazan colour is commonly taken as a measure of viable cells.)
In data set [2] the test system is A549. The data set is described as follows: Cytotoxicity against human A549 cells assessed as growth inhibition after 48 hrs by MTT assay. Type of data set: functional, cell-based. The settings on record: A549, 48 h.
The next data set has as its system HL-60. The data set is described as follows: Cytotoxicity against human HL60 cells assessed as growth inhibition after 48 hrs by CCK-8 assay. The settings on record: HL-60, 48 h. Type of data set: functional, cell-based.
In the next data set the test system is HeLa. The data set is described as follows: Cytotoxicity against human HeLa cells assessed as growth inhibition after 48 hrs by MTT assay. Type of data set: functional, cell-based.
Data set [3] addresses DNA topoisomerase 2-alpha (Homo sapiens) (UniProt P11388). Description: Inhibition of DNA topoisomerase-2 (unknown origin) assessed as inhibition of pBR322 DNA relaxation at 100 uM by agarose gel electrophoresis.
The subject of data set [4] is A549. The data set is described as follows: Induction of apoptosis in human A549 cells assessed as cell shrinkage after 48 hrs by confocal microscopic analysis. Type of data set: functional, cell-based.
Data set [5] has as its system A549. Description: Cell cycle arrest in human A549 cells assessed as accumulation at G2/M phase at 5 uM after 48 hrs by propidium iodide staining-based FACS flow cytometric analysis (reference value: 16.4%). Type of data set: functional. (In flow cytometry, cells or beads pass a laser one at a time.)
Data set [6] has as its system A549. The data set is described as follows: Cell cycle arrest in human A549 cells assessed as accumulation at G2/M phase at 5 uM after 24 hrs by propidium iodide staining-based FACS flow cytometric analysis (reference value: 16.4%). Type of data set: functional.
Data set [7] deals with A549. Description: Cell cycle arrest in human A549 cells assessed as accumulation at S phase at 5 uM after 48 hrs by propidium iodide staining-based FACS flow cytometric analysis (reference value: 25.5%). Type of data set: functional.
Data set [8] deals with A549. Description: Cell cycle arrest in human A549 cells assessed as accumulation at S phase at 5 uM after 24 hrs by propidium iodide staining-based FACS flow cytometric analysis (reference value: 25.5%). Type of data set: functional.
Data set [9] concerns A549. The data set is described as follows: Cell cycle arrest in human A549 cells assessed as accumulation at G1 phase at 5 uM after 48 hrs by propidium iodide staining-based FACS flow cytometric analysis (reference value: 58.1%). Type of data set: functional.
Data set [10] concerns A549. Description: Cell cycle arrest in human A549 cells assessed as accumulation at G1 phase at 5 uM after 24 hrs by propidium iodide staining-based FACS flow cytometric analysis (reference value: 58.1%). Type of data set: functional.
The subject of data set [11] is A549. Description: Cell cycle arrest in human A549 cells assessed as accumulation at sub-G1 phase at 5 uM after 48 hrs by propidium iodide staining-based FACS flow cytometric analysis (reference value: 1.5%). Type of data set: functional.
For data set [12], the system named is A549. The data set is described as follows: Cell cycle arrest in human A549 cells assessed as accumulation at sub-G1 phase at 5 uM after 24 hrs by propidium iodide staining-based FACS flow cytometric analysis (reference value: 1.5%). Type of data set: functional.
The subject of data set [13] is A549. Description: Induction of apoptosis in human A549 cells assessed as nuclear condensation after 48 hrs by DAPI staining-based confocal microscopic analysis. Type of data set: functional, cell-based.
The test system of data set [14] is A549. The data set is described as follows: Induction of apoptosis in human A549 cells assessed as nuclear DNA fragmentation after 48 hrs by DAPI staining-based confocal microscopic analysis. Type of data set: functional, cell-based.
In data set [15] the test system is A549. The data set is described as follows: Induction of apoptosis in human A549 cells assessed as appearance of round, short and dense microtubule networks after 48 hrs by confocal microscopic analysis. Type of data set: functional, cell-based.

Calls of active or inactive are those of the source. The calls are words filed in the database; no cut-off is given here.

The IC50 is the concentration needed to halve the response being measured.

Chain of DNA topoisomerase 2-alpha (Homo sapiens) (P11388 whole entry): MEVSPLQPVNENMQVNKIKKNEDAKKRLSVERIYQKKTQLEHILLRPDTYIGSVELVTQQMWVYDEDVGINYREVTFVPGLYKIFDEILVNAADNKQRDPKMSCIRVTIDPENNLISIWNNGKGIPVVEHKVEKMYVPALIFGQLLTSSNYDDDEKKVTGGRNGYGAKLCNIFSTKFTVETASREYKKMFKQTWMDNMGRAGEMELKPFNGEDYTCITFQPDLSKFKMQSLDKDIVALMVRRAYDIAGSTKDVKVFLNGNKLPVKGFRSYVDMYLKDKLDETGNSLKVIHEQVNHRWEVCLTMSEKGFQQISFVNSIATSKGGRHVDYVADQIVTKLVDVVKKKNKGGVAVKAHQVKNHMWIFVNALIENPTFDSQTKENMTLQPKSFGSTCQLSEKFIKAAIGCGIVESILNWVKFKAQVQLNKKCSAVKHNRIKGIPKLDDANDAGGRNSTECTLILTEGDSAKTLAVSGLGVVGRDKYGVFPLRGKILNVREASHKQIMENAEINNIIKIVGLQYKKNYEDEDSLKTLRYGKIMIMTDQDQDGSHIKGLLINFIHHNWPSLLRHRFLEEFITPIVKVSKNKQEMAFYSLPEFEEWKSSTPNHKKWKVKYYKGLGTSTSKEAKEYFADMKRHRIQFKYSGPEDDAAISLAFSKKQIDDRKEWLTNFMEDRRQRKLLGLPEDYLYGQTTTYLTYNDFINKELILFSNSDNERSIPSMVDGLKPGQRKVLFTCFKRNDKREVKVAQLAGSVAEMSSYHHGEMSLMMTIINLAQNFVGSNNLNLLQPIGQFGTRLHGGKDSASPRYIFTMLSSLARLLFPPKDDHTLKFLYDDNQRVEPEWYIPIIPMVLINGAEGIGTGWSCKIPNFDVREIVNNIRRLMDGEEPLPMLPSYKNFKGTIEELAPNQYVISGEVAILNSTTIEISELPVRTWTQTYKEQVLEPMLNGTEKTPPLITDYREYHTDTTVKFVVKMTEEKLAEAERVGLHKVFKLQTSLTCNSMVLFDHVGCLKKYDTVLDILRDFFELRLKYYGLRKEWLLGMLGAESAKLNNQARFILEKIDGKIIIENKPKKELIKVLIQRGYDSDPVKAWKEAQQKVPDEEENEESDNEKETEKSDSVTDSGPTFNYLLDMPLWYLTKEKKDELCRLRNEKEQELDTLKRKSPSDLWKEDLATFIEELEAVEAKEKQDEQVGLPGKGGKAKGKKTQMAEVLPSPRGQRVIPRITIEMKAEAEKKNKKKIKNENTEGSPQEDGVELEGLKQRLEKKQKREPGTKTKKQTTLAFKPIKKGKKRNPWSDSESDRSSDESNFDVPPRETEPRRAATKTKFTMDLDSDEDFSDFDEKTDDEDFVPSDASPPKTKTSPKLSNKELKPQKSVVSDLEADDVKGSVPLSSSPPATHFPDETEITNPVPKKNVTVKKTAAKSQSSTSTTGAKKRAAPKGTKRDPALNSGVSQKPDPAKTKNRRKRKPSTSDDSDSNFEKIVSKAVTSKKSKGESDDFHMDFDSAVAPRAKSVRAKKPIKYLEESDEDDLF

As to `COc1cc([C@@H]2c3cc4c(cc3[C@@H](n3cc(COC(=O)N[C@@H](CCSC)C(=O)N5CCN(c6ccc([N+](=O)[O-])cc6)CC5)nn3)[C@H]3COC(=O)[C@H]23)OCO4)cc(OC)c1O`, in data set [1], the solubility entry is listed as “soluble”. Besides, the IC50 came to 40.8 µM in the data set on HCT-8, 45.6 µM in the data set with A549 [2], 15.7 µM in the data set on HL-60 and 10.3 µM in the data set on HeLa.
On the same counts, the results for `COc1cc([C@@H]2c3cc4c(cc3[C@@H](n3cc(COC(=O)N5CCN(c6ccc([N+](=O)[O-])cc6)CC5)nn3)[C@H]3COC(=O)[C@H]23)OCO4)cc(OC)c1O` are “soluble”, 6.15 µM, 5.58 µM, 0.32 µM and 3.5 µM.
For the compound `COc1cc([C@@H]2c3cc4c(cc3[C@@H](O[C@@H]3O[C@@H]5CO[C@@H](C)O[C@H]5[C@H](O)[C@H]3O)[C@H]3COC(=O)[C@H]23)OCO4)cc(OC)c1O` [ETOPOSIDE], the inhibition entry in data set [3] was “Active”. Besides, the 50% inhibitory concentration (IC50) turned out to be 7.06 µM with HCT-8, 3.2 µM in the data set on A549 [2], 1.15 µM in the data set on HL-60 and 2.91 µM in the data set on HeLa.
As to `COc1cc([C@@H]2c3cc4c(cc3[C@@H](n3cc(COC(=O)N5CCN(c6ccc(F)cc6)CC5)nn3)[C@H]3COC(=O)[C@H]23)OCO4)cc(OC)c1OC`, the IC50 is 1.47 µM in the data set on HCT-8, 22.1 µM with A549 [2], less than 0.01 µM in the data set with HL-60 and 3.84 µM with HeLa.
In the case of `CCCNC(=O)OCc1cn([C@@H]2c3cc4c(cc3[C@@H](c3cc(OC)c(OC)c(OC)c3)[C@H]3C(=O)OC[C@@H]32)OCO4)nn1`, the IC50 in the data set on HCT-8 amounted to 6.29 µM; in the data set with A549 [2] it was 46.8 µM; in the data set on HL-60, 2.77 µM; with HeLa it was 7.42 µM.
For `COc1cc([C@@H]2c3cc4c(cc3[C@H](O)[C@H]3COC(=O)[C@H]23)OCO4)cc(OC)c1OC` [PODOFILOX], the solubility entry in [1] is reported as “soluble”.
As to `CCCNC(=O)OCc1cn([C@@H]2c3cc4c(cc3[C@@H](c3cc(OC)c(O)c(OC)c3)[C@H]3C(=O)OC[C@@H]32)OCO4)nn1`, the IC50 in the data set on HCT-8 amounted to 16.2 µM; in the data set with A549 [2] it was 23 µM; in the data set on HL-60, 0.183 µM; in the data set with HeLa, 6.91 µM.
For the compound `COc1cc([C@@H]2c3cc4c(cc3[C@@H](n3cc(COC(=O)N5CCN(c6ccc([N+](=O)[O-])cc6)CC5)nn3)[C@H]3COC(=O)[C@H]23)OCO4)cc(OC)c1OC`, the IC50 was determined as 31.3 µM in the data set on HCT-8, 56.6 µM with A549 [2], 0.625 µM in the data set on HL-60 and 6.48 µM in the data set with HeLa.
Turning to `COc1cc([C@@H]2c3cc4c(cc3[C@@H](n3cc(COC(=O)N5CCOCC5)nn3)[C@H]3COC(=O)[C@H]23)OCO4)cc(OC)c1OC`, the concentration for half-maximal inhibition (IC50) in the data set with HCT-8 was determined as 2.05 µM; with A549 [2], 23.3 µM; in the data set on HL-60, 0.629 µM; with HeLa, 35.7 µM.
For the compound `COc1cc([C@@H]2c3cc4c(cc3[C@@H](n3cc(CO)nn3)[C@H]3COC(=O)[C@H]23)OCO4)cc(OC)c1OC`, the IC50 in the data set on HCT-8 is 2.76 µM; in the data set on A549 [2], 22.1 µM; in the data set on HL-60, 0.298 µM; with HeLa, 0.92 µM.
`COc1cc([C@@H]2c3cc4c(cc3[C@@H](n3cc(COC(=O)N5CCN(C6CCCC6)CC5)nn3)[C@H]3COC(=O)[C@H]23)OCO4)cc(OC)c1OC`: the IC50 in the data set on HCT-8 is 0.35 µM; in the data set with A549 [2], 8.7 µM; in the data set on HL-60, less than 0.01 µM; in the data set with HeLa, less than 0.01 µM.
In the case of `COc1cc([C@@H]2c3cc4c(cc3[C@@H](n3cc(COC(=O)NC5CCCC5)nn3)[C@H]3COC(=O)[C@H]23)OCO4)cc(OC)c1O`, the inhibition result in data set [3] is “Active”. For the same compound, the Activity result is “Dose-dependent effect” with A549 [4]; 22.2% with A549 [5]; 20.6% with A549 [6]; 55.1% in the data set on A549 [7]; 36.3% in the data set with A549 [8]; 22.7% in the data set with A549 [9]. The Activity with A549 [10] was 43.1%; in the data set with A549 [11] it was 26.8%; in the data set on A549 [12] it was 24.3%; in the data set on A549 [13] it was “Dose-dependent effect”; in the data set with A549 [14], “Dose-dependent effect”; in the data set on A549 [15], “Dose-dependent effect”. Also, the IC50 in the data set on HCT-8 was 0.05 µM; in the data set on A549 [2] it was 0.14 µM; in the data set with HL-60 it was less than 0.01 µM; with HeLa it was 0.51 µM.
Take `COc1cc([C@@H]2c3cc4c(cc3[C@@H](n3cc(COC(=O)NC5CCCC5)nn3)[C@H]3COC(=O)[C@H]23)OCO4)cc(OC)c1OC`: the IC50 in the data set with HCT-8 stood at 14.9 µM; with A549 [2] it was 14.8 µM; in the data set on HL-60, 0.375 µM; with HeLa it was 1.16 µM.
With `COc1cc([C@@H]2c3cc4c(cc3[C@@H](n3cc(COC(=O)N5CCOCC5)nn3)[C@H]3COC(=O)[C@H]23)OCO4)cc(OC)c1O`, the IC50 with HCT-8 is 0.37 µM; in the data set on A549 [2], 1.46 µM; in the data set with HL-60, 0.045 µM; in the data set with HeLa, 0.03 µM.

The values are drawn from ChEMBL document CHEMBL2390892, “Synthesis and cytotoxic activity on human cancer cells of carbamate derivatives of 4β-(1,2,3-triazol-1-yl)podophyllotoxin” (Eur J Med Chem, 2013).
